± gives the expanded uncertainty stated by the source.
Experiments:
[1] = xn = mol fraction of the nth substance listed; details: 100 kPa, Liquid, Vibrating tube method
[2] = mn = molality of the nth substance listed, in mol/kg; details: 100 kPa, Liquid, Capillary tube (Ostwald / Ubbelohde) method

CC(C)(CO)[C@@H](O)C(=O)NCCCO [d-Panthenol] + O
Details | mass density, 293.15 K [kg/m3] | mass density, 298.15 K [kg/m3] | mass density, 303.15 K [kg/m3] | mass density, 308.15 K [kg/m3] | mass density, 313.15 K [kg/m3] | viscosity, 293.15 K [mPa·s] | viscosity, 298.15 K [mPa·s] | viscosity, 303.15 K [mPa·s] | viscosity, 308.15 K [mPa·s] | viscosity, 313.15 K [mPa·s]
[1], x1 = 0.0036 | 1004.95 ± 1.6 | 1003.69 ± 1.6 | 1002.18 ± 1.6 | 1000.46 ± 1.6 | 998.5 ± 1.6 | – | – | – | – | –
[1], x1 = 0.0054 | 1008.18 ± 1.6 | 1006.88 ± 1.6 | 1005.33 ± 1.6 | 1003.56 ± 1.6 | 1001.53 ± 1.6 | – | – | – | – | –
[1], x1 = 0.0071 | 1011.3 ± 1.6 | 1009.95 ± 1.6 | 1008.35 ± 1.6 | 1006.55 ± 1.6 | 1004.49 ± 1.6 | – | – | – | – | –
[1], x1 = 0.0089 | 1014.36 ± 1.6 | 1012.97 ± 1.6 | 1011.34 ± 1.6 | 1009.5 ± 1.6 | 1007.4 ± 1.6 | – | – | – | – | –
[1], x1 = 0.0107 | 1017.42 ± 1.6 | 1016 ± 1.6 | 1014.32 ± 1.6 | 1012.45 ± 1.6 | 1010.32 ± 1.6 | – | – | – | – | –
[1], x1 = 0.0124 | 1020.22 ± 1.6 | 1018.76 ± 1.6 | 1017.07 ± 1.6 | 1015.14 ± 1.6 | 1012.99 ± 1.6 | – | – | – | – | –
[1], x1 = 0.0142 | 1023.06 ± 1.6 | 1021.57 ± 1.6 | 1019.84 ± 1.6 | 1017.89 ± 1.6 | 1015.72 ± 1.6 | – | – | – | – | –
[1], x1 = 0.0248 | 1039.61 ± 1.6 | 1037.84 ± 1.6 | 1035.87 ± 1.6 | 1033.67 ± 1.6 | 1031.28 ± 1.6 | – | – | – | – | –
[1], x1 = 0.031 | 1049.02 ± 1.6 | 1046.69 ± 1.6 | 1044.71 ± 1.6 | 1042.43 ± 1.6 | 1039.83 ± 1.6 | – | – | – | – | –
[1], x1 = 0.0376 | 1055.92 ± 1.6 | 1053.81 ± 1.6 | 1051.55 ± 1.6 | 1049.07 ± 1.6 | 1046.45 ± 1.6 | – | – | – | – | –
[1], x1 = 0.0501 | 1068.98 ± 1.6 | 1066.6 ± 1.6 | 1064.45 ± 1.6 | 1062.19 ± 1.6 | 1059.96 ± 1.6 | – | – | – | – | –
[1], x1 = 0.0996 | 1102.82 ± 1.6 | 1099.84 ± 1.6 | 1096.7 ± 1.6 | 1093.45 ± 1.6 | 1090.55 ± 1.6 | – | – | – | – | –
[1], x1 = 0.1997 | 1134.36 ± 1.6 | 1130.9 ± 1.6 | 1127.26 ± 1.6 | 1123.64 ± 1.6 | 1119.93 ± 1.6 | – | – | – | – | –
[1], x1 = 0.2495 | 1141.94 ± 1.6 | 1138.2 ± 1.6 | 1134.68 ± 1.6 | 1130.9 ± 1.6 | 1127.21 ± 1.6 | – | – | – | – | –
[1], x1 = 0.2871 | 1146.56 ± 1.6 | 1142.9 ± 1.6 | 1139.2 ± 1.6 | 1135.41 ± 1.6 | 1131.52 ± 1.6 | – | – | – | – | –
[1], x1 = 0.342 | 1151.05 ± 1.6 | 1147.23 ± 1.6 | 1143.4 ± 1.6 | 1139.69 ± 1.6 | 1135.87 ± 1.6 | – | – | – | – | –
[1], x1 = 0.4007 | 1154.55 ± 1.6 | 1150.87 ± 1.6 | 1146.9 ± 1.6 | 1143.02 ± 1.6 | 1139.25 ± 1.6 | – | – | – | – | –
[1], x1 = 0.4958 | 1158.52 ± 1.6 | 1154.87 ± 1.6 | 1151.08 ± 1.6 | 1147.04 ± 1.6 | 1143.29 ± 1.6 | – | – | – | – | –
[1], x1 = 0.5944 | 1160.64 ± 1.7 | 1157.16 ± 1.7 | 1153.51 ± 1.7 | 1149.72 ± 1.7 | 1145.77 ± 1.6 | – | – | – | – | –
[1], x1 = 0.708 | 1162.75 ± 1.7 | 1159.25 ± 1.7 | 1155.76 ± 1.7 | 1152.16 ± 1.7 | 1148.24 ± 1.7 | – | – | – | – | –
[1], x1 = 0.8067 | 1163.58 ± 1.8 | 1160.22 ± 1.8 | 1156.74 ± 1.8 | 1153.27 ± 1.8 | 1149.57 ± 1.8 | – | – | – | – | –
[1], x1 = 0.8753 | 1164.26 ± 1.8 | 1160.86 ± 1.8 | 1157.46 ± 1.8 | 1153.96 ± 1.8 | 1150.3 ± 1.8 | – | – | – | – | –
[1], x1 = 1 | 1165.18 ± 1.9 | 1161.68 ± 1.9 | 1158.27 ± 1.9 | 1154.96 ± 1.9 | 1151.46 ± 1.9 | – | – | – | – | –
[2], m1 = 0.01 | – | – | – | – | – | 1.009 ± 0.021 | 0.896 ± 0.019 | 0.803 ± 0.017 | 0.724 ± 0.015 | 0.657 ± 0.014
[2], m1 = 0.05 | – | – | – | – | – | 1.039 ± 0.022 | 0.923 ± 0.019 | 0.826 ± 0.017 | 0.744 ± 0.016 | 0.675 ± 0.014
[2], m1 = 0.1001 | – | – | – | – | – | 1.078 ± 0.022 | 0.957 ± 0.02 | 0.855 ± 0.018 | 0.769 ± 0.016 | 0.697 ± 0.015
[2], m1 = 0.1989 | – | – | – | – | – | 1.159 ± 0.024 | 1.027 ± 0.021 | 0.917 ± 0.019 | 0.822 ± 0.017 | 0.743 ± 0.016
[2], m1 = 0.3002 | – | – | – | – | – | 1.246 ± 0.026 | 1.1 ± 0.023 | 0.98 ± 0.02 | 0.877 ± 0.018 | 0.791 ± 0.017
[2], m1 = 0.4006 | – | – | – | – | – | 1.334 ± 0.028 | 1.173 ± 0.024 | 1.045 ± 0.022 | 0.932 ± 0.019 | 0.839 ± 0.018
[2], m1 = 0.4997 | – | – | – | – | – | 1.421 ± 0.03 | 1.253 ± 0.026 | 1.105 ± 0.023 | 0.99 ± 0.021 | 0.887 ± 0.019

Reference: the NIST ThermoML archive (doi:10.1016/j.jct.2017.10.014)
